Results reported in BindingDB's records for doi:10.1021/jm9509096 (1996).
Structures can show the parent of a compound that is named as a salt.

molecular target: cGMP-specific 3',5'-cyclic phosphodiesterase (Cavia porcellus); test: Inhibition in vitro of Phosphodiesterase 5 isolated from guinea pig lung

SMILES	IC50
COc1cc2cc(CO)c(CO)c(-c3cc[nH]c(=O)c3)c2cc1OC [4-(2,3-Bis-hydroxymethyl-6,7-dimethoxy-naphthalen-1-yl)-3H-pyridin-2-one]	10 µM
COc1cc2cc(CO)c(CO)c(-c3cc(OC)c(OC)c(C(=O)N(C)C)c3)c2cc1OC [5-(2,3-Bis-hydroxymethyl-6,7-dimethoxy-naphthalen-1-yl)-2,3-dimethoxy-N,N-dimethyl-benzamide]	30 µM
COc1cc2cc(CO)c(CO)cc2cc1OC [(3-Hydroxymethyl-6,7-dimethoxy-naphthalen-2-yl)-methanol]	> 100 µM
CCOc1cc2cc(CO)c(CO)c(-c3cc(N)c(OC)c(OC)c3)c2cc1OCC [[1-(3-Amino-4,5-dimethoxy-phenyl)-6,7-diethoxy-3-hydroxymethyl-naphthalen-2-yl]-methanol; hydrochloride]	30 µM

Continued, values first:

IC50	SMILES
53 µM	COc1cc2cc(CO)c(CO)c(-c3cc(OC)c(OC)c(S(C)(=O)=O)c3)c2cc1OC [[3-Hydroxymethyl-1-(3-methanesulfonyl-4,5-dimethoxy-phenyl)-6,7-dimethoxy-naphthalen-2-yl]-methanol]
20 µM	COc1cc2cc(CO)c(CO)c(Cc3cc(OC)c(OC)c(OC)c3)c2cc1OC [[3-Hydroxymethyl-6,7-dimethoxy-1-(3,4,5-trimethoxy-benzyl)-naphthalen-2-yl]-methanol]
3 µM	COc1cc2cc(CO)c(CO)c(-c3cc(OC)c(OC)c(OC)c3)c2cc1OC [[3-Hydroxymethyl-6,7-dimethoxy-1-(3,4,5-trimethoxy-phenyl)-naphthalen-2-yl]-methanol]
8 µM	COc1ccc2c(-c3cc(OC)c(OC)c(OC)c3)c(CO)c(CO)cc2c1 [[3-Hydroxymethyl-6-methoxy-1-(3,4,5-trimethoxy-phenyl)-naphthalen-2-yl]-methanol]
> 30 µM	COc1cc(-c2c(CO)c(CO)cc3cc4c(cc23)OCO4)cc(OC)c1OC [[7-Hydroxymethyl-5-(3,4,5-trimethoxy-phenyl)-naphtho[2,3-d][1,3]dioxol-6-yl]-methanol]
